Experimental findings from ChEMBL document CHEMBL3784917, “Recent Progress in Histone Demethylase Inhibitors” (J Med Chem, 2016) are described below.

A short description of experiment [1]: Growth inhibition of human MIAPaCa2 cells after 48 hrs by CellTiter-Glo assay. The class given is functional. As to conditions: MIA PaCa-2, 48 h. In general terms: Cellular ATP, detected with luciferase, serves as a proxy for viable cell number.
Experiment [2] has as its target T1, Lysine-specific demethylase 2A (Homo sapiens, UniProt Q9Y2K7).
T1 sequence (Q9Y2K7 whole entry): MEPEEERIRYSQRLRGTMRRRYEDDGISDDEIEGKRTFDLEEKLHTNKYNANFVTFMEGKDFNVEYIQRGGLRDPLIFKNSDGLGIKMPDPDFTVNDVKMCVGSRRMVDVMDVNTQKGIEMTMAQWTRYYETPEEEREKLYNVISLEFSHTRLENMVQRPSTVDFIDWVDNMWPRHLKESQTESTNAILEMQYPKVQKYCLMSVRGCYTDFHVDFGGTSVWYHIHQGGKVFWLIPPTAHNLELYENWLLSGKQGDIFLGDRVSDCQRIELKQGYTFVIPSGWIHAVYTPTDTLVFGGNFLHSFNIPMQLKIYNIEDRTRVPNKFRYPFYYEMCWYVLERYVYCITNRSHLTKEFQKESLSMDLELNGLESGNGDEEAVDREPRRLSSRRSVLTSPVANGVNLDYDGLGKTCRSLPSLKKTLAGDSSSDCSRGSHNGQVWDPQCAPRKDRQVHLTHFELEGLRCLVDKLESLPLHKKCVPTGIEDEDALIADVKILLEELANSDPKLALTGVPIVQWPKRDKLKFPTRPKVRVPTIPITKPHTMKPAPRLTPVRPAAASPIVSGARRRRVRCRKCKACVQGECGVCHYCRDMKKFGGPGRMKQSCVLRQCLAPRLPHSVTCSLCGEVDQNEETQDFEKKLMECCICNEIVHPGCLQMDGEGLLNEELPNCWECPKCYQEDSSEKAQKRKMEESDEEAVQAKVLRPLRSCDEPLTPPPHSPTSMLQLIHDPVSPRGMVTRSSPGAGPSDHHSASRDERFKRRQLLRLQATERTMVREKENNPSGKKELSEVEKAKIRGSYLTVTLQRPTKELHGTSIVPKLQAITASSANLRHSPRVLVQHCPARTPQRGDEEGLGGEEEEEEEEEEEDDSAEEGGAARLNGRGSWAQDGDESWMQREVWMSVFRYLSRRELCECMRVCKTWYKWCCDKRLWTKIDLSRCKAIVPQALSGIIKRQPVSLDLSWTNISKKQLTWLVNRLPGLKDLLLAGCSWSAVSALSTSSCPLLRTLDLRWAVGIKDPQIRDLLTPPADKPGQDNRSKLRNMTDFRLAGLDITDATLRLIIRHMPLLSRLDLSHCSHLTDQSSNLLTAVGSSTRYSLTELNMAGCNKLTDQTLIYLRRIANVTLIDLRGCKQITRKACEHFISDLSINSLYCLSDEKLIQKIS
The experiment is described as follows: Competitive inhibition of recombinant His6-tagged KDM2A (1 to 517 residues) (unknown origin) expressed in Escherichia coli BL21 cells using methylstat as substrate preincubated for 30 mins followed by substrate addition measured after 4 hrs by fluorescence polarization assay. (In fluorescence polarisation assays a small probe gives low polarisation when free and higher when bound to something large.)

Experiment [3] addresses T1, Lysine-specific demethylase 2A. Put plainly: Inhibition of KDM2A in human MIAPaCa2 cells assessed as increase in H3K36me2 level after 48 hrs by Hoechst 33258 staining based immunofluorescence assay. The class given is cell-based, MIA PaCa-2.
In experiment [4] the target is T2, Lysine-specific demethylase 4A (Homo sapiens, UniProt O75164).
T2 sequence (O75164 whole entry): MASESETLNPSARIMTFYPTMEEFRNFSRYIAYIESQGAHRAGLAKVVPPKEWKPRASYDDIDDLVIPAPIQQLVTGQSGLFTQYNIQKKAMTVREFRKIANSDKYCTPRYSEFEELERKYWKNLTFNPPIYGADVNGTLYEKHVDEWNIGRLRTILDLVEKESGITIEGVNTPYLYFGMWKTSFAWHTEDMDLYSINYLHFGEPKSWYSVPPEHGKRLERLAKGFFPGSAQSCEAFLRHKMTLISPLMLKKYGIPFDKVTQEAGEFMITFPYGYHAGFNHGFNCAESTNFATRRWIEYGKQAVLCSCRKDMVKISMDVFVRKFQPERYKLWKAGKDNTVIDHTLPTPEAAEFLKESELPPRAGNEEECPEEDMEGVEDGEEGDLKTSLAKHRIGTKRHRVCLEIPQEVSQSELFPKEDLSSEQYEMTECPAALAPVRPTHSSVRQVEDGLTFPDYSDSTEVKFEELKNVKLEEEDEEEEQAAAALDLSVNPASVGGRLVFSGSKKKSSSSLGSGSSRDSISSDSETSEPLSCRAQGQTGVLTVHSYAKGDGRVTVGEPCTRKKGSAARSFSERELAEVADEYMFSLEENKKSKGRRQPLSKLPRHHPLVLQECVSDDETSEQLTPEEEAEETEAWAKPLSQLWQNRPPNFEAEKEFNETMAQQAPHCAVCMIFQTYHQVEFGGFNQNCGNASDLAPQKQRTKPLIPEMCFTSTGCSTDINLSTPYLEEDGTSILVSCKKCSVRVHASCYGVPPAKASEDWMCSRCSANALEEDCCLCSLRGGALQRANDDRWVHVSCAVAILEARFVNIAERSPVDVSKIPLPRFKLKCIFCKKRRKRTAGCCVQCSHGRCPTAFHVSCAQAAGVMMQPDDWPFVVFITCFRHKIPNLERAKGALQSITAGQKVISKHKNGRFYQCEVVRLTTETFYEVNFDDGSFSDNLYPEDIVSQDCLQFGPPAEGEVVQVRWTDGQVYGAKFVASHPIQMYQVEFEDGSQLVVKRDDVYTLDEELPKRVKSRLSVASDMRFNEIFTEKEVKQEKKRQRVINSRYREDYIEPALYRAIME
The experiment is described as follows: biochemical.

Experiment [5] deals with Lysine-specific demethylase 5A (Homo sapiens, UniProt P29375).
Chain of Lysine-specific demethylase 5A (P29375 whole entry): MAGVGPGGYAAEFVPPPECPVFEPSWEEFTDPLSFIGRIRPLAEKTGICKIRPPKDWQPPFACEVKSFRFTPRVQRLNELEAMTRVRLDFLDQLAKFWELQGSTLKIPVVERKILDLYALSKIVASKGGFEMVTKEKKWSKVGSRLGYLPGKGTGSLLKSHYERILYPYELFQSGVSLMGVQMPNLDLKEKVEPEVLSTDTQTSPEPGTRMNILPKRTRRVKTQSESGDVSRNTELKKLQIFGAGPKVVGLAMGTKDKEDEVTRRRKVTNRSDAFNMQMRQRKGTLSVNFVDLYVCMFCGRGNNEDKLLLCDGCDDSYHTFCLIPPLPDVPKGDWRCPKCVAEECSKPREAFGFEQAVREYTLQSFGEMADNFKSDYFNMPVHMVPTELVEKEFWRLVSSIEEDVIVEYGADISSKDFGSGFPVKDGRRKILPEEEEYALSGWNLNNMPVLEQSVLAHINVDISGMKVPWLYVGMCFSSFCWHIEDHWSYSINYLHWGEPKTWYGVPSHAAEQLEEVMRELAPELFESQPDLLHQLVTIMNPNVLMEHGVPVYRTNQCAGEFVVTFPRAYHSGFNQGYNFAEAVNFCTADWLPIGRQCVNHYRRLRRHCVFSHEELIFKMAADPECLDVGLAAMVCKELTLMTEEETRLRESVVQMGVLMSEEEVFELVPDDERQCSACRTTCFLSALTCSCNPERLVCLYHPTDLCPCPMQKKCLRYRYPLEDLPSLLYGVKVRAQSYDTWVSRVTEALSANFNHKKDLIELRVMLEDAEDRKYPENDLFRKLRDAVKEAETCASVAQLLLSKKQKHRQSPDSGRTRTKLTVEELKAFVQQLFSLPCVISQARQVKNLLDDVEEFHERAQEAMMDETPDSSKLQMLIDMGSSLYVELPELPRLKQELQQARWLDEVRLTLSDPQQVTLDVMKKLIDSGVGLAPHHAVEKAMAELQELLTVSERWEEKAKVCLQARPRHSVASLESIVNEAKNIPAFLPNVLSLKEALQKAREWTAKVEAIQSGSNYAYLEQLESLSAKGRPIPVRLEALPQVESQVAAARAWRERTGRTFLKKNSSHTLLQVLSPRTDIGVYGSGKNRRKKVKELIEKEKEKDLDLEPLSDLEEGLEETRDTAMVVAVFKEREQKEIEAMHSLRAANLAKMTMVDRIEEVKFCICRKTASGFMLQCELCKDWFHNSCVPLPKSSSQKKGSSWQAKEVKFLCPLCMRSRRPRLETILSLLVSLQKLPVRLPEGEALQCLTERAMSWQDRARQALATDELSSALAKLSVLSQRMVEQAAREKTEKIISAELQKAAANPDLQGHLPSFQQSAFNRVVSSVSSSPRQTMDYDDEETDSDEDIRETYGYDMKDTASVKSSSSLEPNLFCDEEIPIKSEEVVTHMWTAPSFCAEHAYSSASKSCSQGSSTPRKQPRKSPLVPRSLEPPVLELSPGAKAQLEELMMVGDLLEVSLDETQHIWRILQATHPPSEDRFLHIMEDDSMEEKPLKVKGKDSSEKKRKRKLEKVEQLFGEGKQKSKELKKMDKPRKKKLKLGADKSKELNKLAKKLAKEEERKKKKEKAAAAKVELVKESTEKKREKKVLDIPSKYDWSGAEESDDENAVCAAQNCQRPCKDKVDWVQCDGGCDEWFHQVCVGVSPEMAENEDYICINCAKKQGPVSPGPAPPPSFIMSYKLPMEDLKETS

The GI50 is the concentration at which growth is held to half of that of the control. Low values mean more potent growth inhibition, high ones less potent growth inhibition. What is called Ki is the equilibrium dissociation constant of an inhibitor or competing ligand from its target. In general, EC50 refers to the midpoint of the concentration-response curve. As for `CCCCCC[n+]1ccc(/C=C/c2ccc(N(C)C)cc2)cc1`, the GI50 in experiment [1] worked out at 71 nM. Further, the Ki turned out to be 280 nM in experiment [2] and 420 nM in experiment [4]. Further, the concentration for a half-maximal effect (EC50) in experiment [3] amounted to 280 nM.
One may read the IC50 as the concentration needed to halve the response being measured. A low value points to greater potency in that assay. With `CCCCc1oc2ccccc2c1C(=O)c1cc(I)c(OCCCC[N+](C)(C)C)c(I)c1`, in experiment [5], the IC50 came out at 41000 nM.
